Results reported in patent US6399355B1 (priority 1995, dated 2002).

Test system: HIV-1
Format: cell-based
Details: for Inhibition Ratio (Number of viral particles/ml in control)/(Number with drug added): 1 μg/ml test compound mixed with HIV-1 (10^5 infectious units) at 37° C. for 2 hours, cells cultured six days; for viral inactivation (in words): at these concentrations (1 μg/ml)
Procedure: HIV-1 (10^5 infectious units) was mixed with 1 μg/ml of test compound at 37° C. for 2 hours. Test cells were innoculated with the mixture for two hours. The cells were then washed three times with PBS and cultured for six days.

Row | Substance | Inhibition Ratio (Number of viral particles/ml in control)/(Number with drug added) | viral inactivation (in words)
1 | pentosan sulfate [Pentosan Sultate] | 1 | do not show significant activation
2 | Dextran sulfate | 1 | do not show significant activation
